Data as given in PMC13492205, “LC–MS/MS method for the quantitation of a dual PI3K/BRD4 inhibitor SF2523 in mouse plasma: Application to plasma protein binding and metabolism studies” (Biomedical chromatography : BMC, 2023).

Key:
[1] = In vitro metabolic stability in mouse S9; details: for metabolic stability of positive controls: S9 and microsomes, in-house limits
Experimental: (§1) For metabolic stability samples, extractions (50 μl) were taken at each pre-determined time point and mixed with 300 μl of ice-cold methanol containing IS in a 1.5 ml centrifuge tube. Then, samples were vortexed for 2 min and centrifuged (17,950g) for 10 min. An aliquot (100 μl) of the clear supernatant was transferred into an autosampler vial and 2 μl was injected into the LC–MS/MS system.
Metabolic stability was assessed using mouse, rat and human liver microsomes, and mouse liver S9 fractions (XenoTech, LLC, Lenexa, KS, USA) were used for the in vitro assessment of phase I and II metabolism. Incubation with S9 fractions was performed in triplicate, at 2 μM SF2523 concentration as described in our previous report ([Aldhafiri et al., 2020]; [Bala et al., 2020]). The reaction was started by adding 2 μl of SF2523 at a final concentration of 2 μM. Serial samples (50 μl) were collected at selected time intervals and quenched with 300 μl of methanol spiked with 10 μl of IS (0.5 μg/ml). All of the samples were vortexed and centrifuged at 13,000g for 15 min, and the supernatant was collected and transferred to an autosampler vial and injected (2 μl) onto the LC–MS/MS system. Testosterone 7-hydroxycoumarin and diclofenac were used as positive controls to ensure that S9, microsomes and the incubation conditions were appropriate to conduct metabolism studies.
The S9 fraction and microsomal stability were expressed as the percentage of drug remaining at each time. The in vitro metabolic elimination rate constant was determined from the first-order plot of a natural logarithm of the area ratio vs. time. The slope of the linear regression equation was used to determine the elimination rate constant k (min^−1).

[2] = Stability of SF2523 in mouse plasma under storage conditions; format: in vitro ADME
Experimental: Stability in mouse plasma was assessed in triplicate at LQC and HQC concentrations at room temperature (6 h, 25 ± 5°C), and after three freeze–thaw cycles (−80°C) and long-term storage (60 days at −80°C). Additionally, the 24 h autosampler stability of extracted samples (at 4°C) was determined.

[3] = Gastrointestinal fluid stability (SGF, SIF, phosphate buffer); format: physicochemical; details: 37°C
Experimental: Simulated GIs were prepared according to United States Pharmacopoeia (USP) specifications. Briefly, SF2523 at 10 μM concentration was incubated with simulated gastric fluid (SGF). Simulated intestinal fluid (SIF) and phosphate buffer (100 mM, pH 7.4) were kept at 37°C in a shaking water bath, each in triplicate. Samples (100 μl) were collected at 0, 15, 30, 60 and 120 min. Immediately after sample collection, 5 vols of methanol containing IS were added and samples were prepared for analysis. Stability was determined as the percentage of parent compound detected at each time point relative to the concentration at 0 min in buffer (100%) ([Wang et al., 2015]).

[4] = Blood-to-plasma ratio in mouse blood; format: in vitro ADME
Experimental: At different time points (0, 30 and 60 min) aliquots (50 μl) were collected for blood analysis, and an additional sample (120 μl) was transferred to a microcentrifuge tube and centrifuged at 4,000g for 10 min at 4°C to separate 50 μl plasma for analysis. The whole blood and plasma samples were further processed by SPE as described above. The analyte peak area ratios were used to calculate the blood-to-plasma (B/P) ratio using Equation (4).
(4) ∕PBration=Analyte concentration in whole blood/Analyte concentration in plasma

[5] = Plasma protein binding by rapid equilibrium dialysis; format: in vitro ADME, mouse; details: mouse plasma, mean, n = 3
Experimental: (§2) The sample contained mouse plasma spiked with 1 or 10 μM SF2523 and was added to the sample chamber. The rapid equilibrium dialysis kit top was then sealed and incubated at 37°C on an orbital shaker at 100 rpm for 5 h.
(§3) At pre-determined times, aliquots (40 μl) were removed from the sample, and buffer chambers and mixed with an equal volume of buffer or blank plasma, respectively. The samples were further processed by SPE as described above and analyzed by LC–MS/MS. The stability, equilibrium, device recovery and PPB were calculated using the following equations ([Lindup & Orme, 1981]): (5) %Remaining at5h=[…]/Concentration0h×100 (6) %Equilibrium=Concentrationreceiver cell/Concentrationdonor cell×100 (7) %Device Recovery=Concentrationreceiver cell+Concentrationdonor cell/Concentration0h×100 (8) %Bound=Concentrationdonor cell−Conentrationreceiver cell/Concentrationdonor cell×100

mouse plasma proteins = assay: as above; format: in vitro ADME
Experimental: as §2, §3

[6] = In vitro metabolic stability in human S9; format: in vitro ADME; details: S9 fraction; human S9, 2 μM; read-out: in vitro t1/2
[7] = In vitro metabolic stability in mouse liver microsomes; format: in vitro ADME; details: read-out: in vitro t1/2
Experimental: as §1
(§4) Metabolic stability was assessed using mouse, rat and human liver microsomes, and mouse liver S9 fractions (XenoTech, LLC, Lenexa, KS, USA) were used for the in vitro assessment of phase I and II metabolism. Incubation with S9 fractions was performed in triplicate, at 2 μM SF2523 concentration as described in our previous report ([Aldhafiri et al., 2020]; [Bala et al., 2020]). The reaction was started by adding 2 μl of SF2523 at a final concentration of 2 μM. Serial samples (50 μl) were collected at selected time intervals and quenched with 300 μl of methanol spiked with 10 μl of IS (0.5 μg/ml). […]
(§5) The S9 fraction and microsomal stability were expressed as the percentage of drug remaining at each time. The in vitro metabolic elimination rate constant was determined from the first-order plot of a natural logarithm of the area ratio vs. time. […]

[8] = In vitro metabolic stability in human liver microsomes; format: in vitro ADME; details: read-out: in vitro t1/2
Experimental: as §1, §4, §5

[9] = Metabolite identification in mouse S9 fraction; format: in vitro ADME; details: phase I and II, 35 min gradient LC–MS/MS
Experimental: For metabolite identification, mass shift analyses were performed using the same LC–MS/MS system. […] The parent drug MS/MS spectrum was used as a template model for structure identification and assuming that the fragmentation pattern of the parent drug from the production spectrum was used to deduce the structures of the metabolites ([Francis et al., 1999]). The data acquisition for the metabolite identification study was conducted using Labsolution software (Shimadzu Scientific Instruments, Columbia, MD, USA, version 5.8).

[10] = Stability of SF2523 in mouse plasma under storage conditions; format: in vitro ADME; details: nominal 200 ng/ml, mean ± SD, n = 3, read-out: Stability recovery, Accuracy (%)

With `O=c1ccc2ccc(O)cc2o1` [7-hydroxycoumarin] the “metabolic stability of positive controls” value [1] was “within acceptable in-house limits”.
With `O=c1cc(N2CCOCC2)oc2c(-c3ccc4c(c3)OCCO4)csc12` [SF2523] the recovery at 6 h, 0.3 ng/ml ([2]; mouse plasma, Bench-top stability for 8 h at (21°C, 6 h), nominal 0.3 ng/ml, mean ± SD, n = 3, read-out: Stability recovery, Accuracy (%)) was 95.8 ± 4.03%, the recovery at 6 h, 375 ng/ml ([2]; mouse plasma, Bench-top stability for 8 h at (21°C, 6 h), nominal 375 ng/ml, mean ± SD, n = 3, read-out: Stability recovery, Accuracy (%)) was 111.2 ± 0.21% and the recovery at 60 days, 0.3 ng/ml ([2]; mouse plasma, Long-term stability (60 days, −80°C), nominal 0.3 ng/ml, mean ± SD, n = 3, read-out: Stability recovery, Accuracy (%)) was 103 ± 2.62%. The recovery at 60 days, 375 ng/ml ([2]; mouse plasma, Long-term stability (60 days, −80°C), nominal 375 ng/ml, mean ± SD, n = 3, read-out: Stability recovery, Accuracy (%)) was 97.25 ± 0.35%, the recovery at 0.3 ng/ml ([2]; mouse plasma, Three freeze-thaw cycles (−80°C to room temperature), nominal 0.3 ng/ml, mean ± SD, n = 3, read-out: Stability recovery, Accuracy (%)) was 92.9 ± 12.3% and the recovery at 375 ng/ml ([2]; mouse plasma, Three freeze-thaw cycles (−80°C to room temperature), nominal 375 ng/ml, mean ± SD, n = 3, read-out: Stability recovery, Accuracy (%)) was 113.7 ± 0.14%. The recovery at 24 h, 0.3 ng/ml ([2]; mouse, extracted plasma samples, Autosampler stability (4°C, 24 h), nominal 0.3 ng/ml, mean ± SD, n = 3, read-out: Stability recovery, Accuracy (%)) was 105 ± 5.16%, the recovery at 24 h, 375 ng/ml ([2]; mouse, extracted plasma samples, Autosampler stability (4°C, 24 h), nominal 375 ng/ml, mean ± SD, n = 3, read-out: Stability recovery, Accuracy (%)) was 103 ± 1.13% and the parent drug remaining ([2]; under a variety of storage conditions) was over 90%. The parent remaining ([3]; phosphate buffer pH 7.4, 10 μM, after 2 h) was over 90%, the parent remaining ([3]; simulated gastric fluid (SGF), pH 1.2, 10 μM, after 1 h) was over 90% and the parent remaining ([3]; simulated intestinal fluid (SIF), pH 6.8, 10 μM, after 2 h) was over 90%. For the same compound, the B/P ([4]; At 0.1 μg/ml, time point 0 min) was 0.85, the B/P ([4]; At 0.1 μg/ml, time point 30 min) was 0.98 and the B/P ([4]; At 0.1 μg/ml, time point 60 min) was 0.83. The B/P ([4]; At 1 μg/ml, time point 0 min) was 0.85, the B/P ([4]; At 1 μg/ml, time point 30 min) was 0.93 and the B/P ([4]; At 1 μg/ml, time point 60 min) was 0.93. For the same compound, the blood plasma ratio at 0.1 μg/ml ([4]; whole blood, 0.1 μg/ml, overall value, read-out: blood-to-plasma ratio (B/P)) was 0.88, the blood plasma ratio at 1 μg/ml ([4]; whole blood, 1 μg/ml, overall value, read-out: blood-to-plasma ratio (B/P)) was 0.9 and the fraction unbound at 5 h, 1 µM ([5]; at 1 µM, read-out: Percentage plasma protein bound (converted)) was 0.0418. For the same compound, the fraction unbound at 5 h, 10 µM ([5]; at 10 µM, read-out: Percentage plasma protein bound (converted)) was 0.0327, the recovery at 5 h ([5]; mouse, mouse plasma in rapid equilibrium dialysis device, rapid equilibrium dialysis device, read-out: Percentage device recovery) was over 90% and the “Percentage remaining at 5 h (stability)” value (mouse plasma proteins; mouse plasma, 37°C, 5 h incubation, mean, n = 3) was 99.06%. For the same compound, the “bound to mouse plasma proteins” value (mouse plasma proteins; mouse plasma, both tested concentrations) was over 95%, the Percentage device recovery (mouse plasma proteins; rapid equilibrium dialysis device, mouse plasma, mean, n = 3) was 98.58% and the half-life at 2 μM ([1]; mouse, liver S9 fraction) was under 2 min. The half-life at 2 μM [6] was under 2 min, the half-life at 2 μM [7] was under 2 min and the half-life at 2 μM [8] was under 2 min. For the same compound, the “number of metabolites identified” value [9] was “Seven”, the recovery at 6 h, 200 ng/ml ([10]; mouse plasma, Bench-top stability for 8 h at (21°C, 6 h)) was 107 ± 4.5% and the recovery at 60 days, 200 ng/ml ([10]; mouse plasma, Long-term stability (60 days, −80°C)) was 103 ± 11.2%. It also gave a recovery at 200 ng/ml ([10]; mouse plasma, Three freeze-thaw cycles (−80°C to room temperature)) of 101 ± 5% and a recovery at 24 h, 200 ng/ml ([10]; mouse, extracted plasma samples, Autosampler stability (4°C, 24 h)) of 101 ± 1.77%.
For `O=C(O)Cc1ccccc1Nc1c(Cl)cccc1Cl` [diclofenac], the “metabolic stability of positive controls” value [1] was “within acceptable in-house limits”.
With `CC(C)NCC(O)COc1cccc2ccccc12` (stereo not drawn) [propranolol, reference compound] the “plasma protein binding of positive control drugs” value (mouse plasma proteins; compared with limits reported in the literature (Barber et al., 1978)) was “within the acceptable limits”.
In the case of `C[C@]12CC[C@H]3[C@@H](CCC4=CC(=O)CC[C@@]43C)[C@@H]1CC[C@@H]2O` [testosterone], the “metabolic stability of positive controls” value [1] is reported as “within acceptable in-house limits”.
